Assay results: patent US20260324636A1, “COMPOSITION FOR PROVIDING PLANT WITH STRESS RESISTANCE” (KIRIN HOLDINGS KABUSHIKI KAISHA, priority 2022, published 2026)

How the values were obtained:
Arabidopsis thaliana = assay: High-temperature stress resistance in liquid culture (leaf chlorosis, chlorophyll content), Example 1; type: in vivo, Arabidopsis thaliana (Col-0); conditions: for chlorosis of plants caused by the high-temperature treatment: 2 h before 44° C. for 60 minutes, then 22° C. 3 days; for chlorophyll content (fresh weight basis): 44° C. 60 minutes, vs group not subjected to the treatment
Excerpt: A wild-type Arabidopsis thaliana strain (accession: Col-0) was used as an experimental material. Seeds were purchased from Inplanta Innovations Inc. (https://www.inplanta.jp/).
(§1) A liquid medium containing a ½ Murashige and Skoog Plant Salt Mixture (Nacalai) and 1 (w/v) % sucrose (FUJIFILM Wako) was used as a growth medium.
(§2) Arabidopsis thaliana seeds were sterilized with the use of a Kitchen Haiter® liquid (bleach for kitchen available from Kao Corporation) diluted to one-half concentration with distilled water for 3 minutes, washed 3 times with sterile distilled water, and then incubated at 4° C. overnight. The growth medium was dispensed at 1 ml/well on a 24-well microplate (IWAKI), 3 grains of the seeds were inoculated in each well, and the plate was transferred to the incubator (TOMY) to initiate growing. The incubator was maintained at a temperature of 22° C. for a daily cycle of 16 hours light and 8 hours darkness.
Before high-temperature treatment, a stock solution of N-acetylglutamic acid (Tokyo Chemical Industry Co., Ltd.) was added to Arabidopsis thaliana 7 days after seeding to the final concentration of 0, 0.01, 0.05, and 0.1 mM in the media, followed by incubation for 2 hours. Sterile distilled water was used as a solvent for the stock solution of N-acetylglutamic acid.
High-temperature treatment was performed with the use of an incubator. The plate was transferred to an incubator maintained at 44° C., incubated for 60 minutes to perform high-temperature treatment, and cultured in an incubator maintained at 22° C. for 3 days.
Plants are known to lose the green pigment chlorophyll from tissue such as leaves upon high-temperature stress exposure and become chlorotic as a consequence. Accordingly, the chlorophyll content was quantified after the high-temperature treatment to evaluate activity of N-acetylglutamic acid to enhance high-temperature stress resistance. The chlorophyll content was quantified in accordance with the method of Yamaguchi et al. (Nature Commun., Jun. 9, 2021, 12 [1]: 3480). To the collected plants, N,N-dimethylformamide (FUJIFILM Wako) was added at 1 ml/well, and incubation was performed at 4° C. in the dark overnight to extract the chlorophyll. Thereafter, the absorbance of the chlorophyll extract was measured at 647 nm (A647) and 664 nm (A664), respectively, using a microspectrophotometer (NanoPhotometer, Implen), and the chlorophyll content was calculated in accordance with the formula: 19.43×A647+8.05×A664. […] Thus, the chlorophyll content was calculated on a fresh weight basis to compare the chlorophyll content among samples.

HAC12 = HAC12 gene expression by real-time PCR, Example 15; type: in vivo; conditions: Arabidopsis thaliana; 0.1 mM in medium, 2 hours after application, 22° C.; read-out: HAC12 expression level, increase vs group not subjected to the treatment
Experimental: The materials as used in Example 14 were used.
as §1
as §2, with “liquid (Kao” for “liquid (bleach for kitchen available from Kao”, “a 12-well” for “a 24-well”, “(IWAKI), 5” for “(IWAKI), 3”
N-acetylglutamic acid was applied to Arabidopsis thaliana 7 days after inoculation to the final concentration of 0.1 mM in the medium, followed by incubation for 2 hours or 6 hours. The incubator was maintained at a temperature of 22° C. for a daily cycle of 16 hours light and 8 hours darkness. After incubation, the samples were frozen with liquid nitrogen, and RNA was extracted using the RNeasy Plant Mini Kit […]. […]
Thereafter, the relative expression levels of the target genes upon N-acetylglutamic acid treatment were calculated by the ΔΔCt method using the Cp values obtained by real-time PCR.

rice = assay: Oxidation stress resistance against methyl viologen in rice (leaf chlorosis, chlorophyll content), Example 9; type: in vivo, rice (variety: Nipponbare); conditions: 0.5 mM, 2.5 μM methyl viologen, 30° C. 3 days
Experimental: A rice strain (the variety: Nipponbare) was used as an experimental material. Rice seeds were purchased from Nouken.
A Murashige and Skoog Plant Salt Mixture (2.2 g) was dissolved in 1 l of pure water, a pH was adjusted to 5.8, and the resultant was autoclaved (121° C., 20 minutes).
Seeds were sterilized by incubation with the use of a Kitchen Haiter® diluted to 2-fold with pure water for 20 minutes. The sterilized seeds were washed 3 times with sterile water, 30 grains of seeds were soaked in a 50-ml conical tube (Falcon) containing 10 ml of sterile water, and the seeds were cultured in an incubator maintained at 30° C. (16 hours light and 8 hours darkness) for 3 days to germinate the seeds.
After the seeds were incubated for 3 days, the growth medium was dispensed at 3 ml/well to the sterilized 12-well microplate (IWAKI), and the germinated seeds were seeded at 3 grains/well. To each well, 0.5 mM N-acetylglutamic acid or an equivalent amount of sterile water was added, and the seeds were incubated at 30° C. for 1 day. […]
Leaf chlorosis is observed in plants upon oxidation stress exposure. Thus, an extent of chlorosis was evaluated by measuring the content of the green pigment chlorophyll in leaves. […] The chlorophyll content was calculated in the same manner as in Example 1.

CC(=O)N[C@@H](CCC(=O)O)C(=O)O [N-acetylglutamic acid]
chlorosis of plants caused by the high-temperature treatment (Arabidopsis thaliana; 0.05 mM in medium): suppressed | chlorophyll content (fresh weight basis) (Arabidopsis thaliana; 0.05 mM): significantly higher | chlorosis of plants caused by the high-temperature treatment (Arabidopsis thaliana; 0.1 mM in medium): suppressed | chlorophyll content (fresh weight basis) (Arabidopsis thaliana; 0.1 mM): significantly higher | fold induction at 100 µM (HAC12): 1.3 | leaf chlorosis in MV-treated group (rice): substantially no leaf chlorosis was observed | chlorophyll content of the MV-treated groups (rice; second leaf, fresh weight basis): increased
